Consider 3 molecules from US20080312209A1, “Piperazine Heteroaryl Derivatives as Gpr38 Agonists” (Glaxo Group Limited, priority 2005, published 2008).

The target in assay [1] is T1, hGPR38R (Homo sapiens, UniProt O43193). Description: GPR38 FLIPR functional agonist assay. Particulars: HEK-293 cells stably expressing the GPR38 receptor, agonist response, Fluo-4 fluorescence. Set-up: expressed in transfected cells. The class given is cell-based. The procedure: The potencies and efficacies of the compounds of this invention for GPR^38 can be determined by FLIPR assay performed on the human cloned receptor as described herein. It has been found, using the FLIPR functional assay, that compounds of formula (I) appear to be partial or full agonists of the GPR38 receptor.
GPR38FLIPR Functional Agonist Assay Protocol
HEK-293 cells stably expressing the GPR38 receptor were seeded (10,000 cells/well) into poly-D-lysine coated 384-well black-wall, clear-bottom microtitre plates (Becton Dickinson) 24 h prior to assay. On day of assay, cells were washed (×2) with 80 ul of assay buffer (Hanks Balanced Salts Solution (HBSS), 10 mM HEPES, 200 μM Ca^2+, 2.5 mM probenecid) using the EMBLA cell washer. After the final wash, buffer was aspirated to leave a residual volume of 30 ul on the cells. Cells were loaded with 1 μM (final) Fluo-4-AM fluorescent indicator dye (TefLabs) in assay buffer, (20 ul loading solution added to each well using the Multidrop). Plates were incubated for 1 h at 37° C., before being washed (×3) with 80 ul assay buffer using the EMBLA cell washer; 30 ul residual being left after the final wash. Plates were then assayed on a Fluorometric Imaging Plate Reader (FLIPR, Molecular Devices). Test compounds were prepared in assay buffer without probenecid, but containing 0.03% CHAPS. In the FLIPR, 10 ul of test compound was added to the cells and changes in fluorescence measured over a 2 min timeframe. Maximum change in fluorescence over baseline was used to determine agonist response and concentration response curves were constructed, using a 4-parameter logistic equation.
(§1) The following alternative procedure may also be used:
HEK-293 cells stably expressing the GPR38 receptor were seeded (30,000 cells/100 ul growth media/well) into poly-D-lysine coated 96-well black-wall, clear-bottom microtitre plates (Corning) 24 hours prior to assay. On the day of assay the cells were loaded with 2 μM (final) Fluo-4-AM fluorescent indicator dye (Molecular Probes) and 1 mM (final) probenicid in assay buffer (145 mM sodium chloride, 2.5 mM potassium chloride, 10 mM Hepes, 10 mM glucose, 1.2 mM magnesium chloride, 1.5 mM calcium chloride and 0.1% BSA) (50 ul loading solution added to each well). Plates were incubated for 1 hour at 25° C., before being washed 4 times with 100 ul assay buffer using the EMBLA cell washer; 150 ul residual being left after the final wash. The cells were then incubated at 25° C. for 20 minutes and the plates were then assayed on a Fluorometric Imaging Plate Reader (FLIPR, Molecular Devices). Test compounds were prepared in assay buffer without probenecid. In the FLIPR, 50 ul of test compound was added to the cells and changes in fluorescence measured over a 2 minute timeframe. Maximum change in fluorescence over baseline was used to determine agonist response and concentration response curves were constructed, using a 4-parameter logistic equation.
Target sequence in this assay (O43193 whole entry): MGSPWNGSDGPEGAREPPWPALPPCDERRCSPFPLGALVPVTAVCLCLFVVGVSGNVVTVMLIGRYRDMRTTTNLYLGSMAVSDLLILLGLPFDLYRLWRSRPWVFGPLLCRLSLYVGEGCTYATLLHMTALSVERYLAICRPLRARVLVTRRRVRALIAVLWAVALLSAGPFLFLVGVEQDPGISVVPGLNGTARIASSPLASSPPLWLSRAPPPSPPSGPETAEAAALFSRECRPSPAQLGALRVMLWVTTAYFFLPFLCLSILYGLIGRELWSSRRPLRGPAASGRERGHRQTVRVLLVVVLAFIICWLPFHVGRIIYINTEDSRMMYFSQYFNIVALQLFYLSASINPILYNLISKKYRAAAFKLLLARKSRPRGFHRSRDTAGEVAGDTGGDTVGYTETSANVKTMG

Assay [2] addresses T1, hGPR38R. The assay can be described thus: GPR38 GTPγS functional agonist assay. The class given is biochemical. Set-up: expressed in transfected cells; host or cells: HEK293 (transient transfection; P2 membrane fractions). The procedure: The potencies and intrinsic activities of the compounds of this invention can also be determined according to the [35S]GTPγS functional assay which is described herein. It has been found, using the [35S]GTPγS functional assay, that compounds of formula (I) appear to be partial or full agonists of the GPR38 receptor.
GPR38GTPγS Functional Agonist Assay Protocol
For each compound being assayed, in an Opti clear bottom 96 well plate, is added:—
(a) 20 μl of test compound (or 10 μl of guanosine 5′-triphosphate (GTP) as non-specific binding control) diluted to required concentration in assay buffer (20 mM N-2-Hydroxyethylpiperazine-N′-2-ethanesulfonic acid (HEPES)+100 mM NaCl+10 mM MgCl2, pH adjusted to 7.4 with NaOH); (b) 60 μl bead/membrane/GDP mix prepared by suspending wheat germ agglutinin-polyvinyltoluene (WGA-PVT) scintillation proximity assay (SPA) beads at 100 mg/ml in assay buffer followed by mixing with membrane (prepared in accordance with the methodology described above) and diluting in assay buffer to give a final volume of 60 μl which contains 10 μg protein and 0.5 mg bead per well—mixture is pre-mixed at 4° C. for 30 min on a roller and just prior to addition to the plate, 10 μM final concentration of guanosine 5′ diphosphate (GDP—diluted in assay buffer) is added; (c) 20 μl guanosine 5′ [γ35-S]thiotriphosphate, triethylamine salt (Amersham; radioactivity concentration=37 kBq/μl or 1 mCi/ml; Specific Activity 1160 Ci/mmol) diluted to 1.9 nM in assay buffer to give 0.38 nM final.
The plate is incubated on a shaker at 25° C. for 30 min followed by centrifugation for 5 min at 1500 rpm. The plate is read between 3 and 6 h after completion of centrifuge run in a Wallac Microbeta counter on a 1 min normalised tritium count protocol. Data is analysed using a 4-parameter logistic equation. Basal activity used as minimum.
as §1
Target sequence in this assay (O43193 whole entry): as above
Target sequence in this assay (P09471 2-354 partner limits assumed): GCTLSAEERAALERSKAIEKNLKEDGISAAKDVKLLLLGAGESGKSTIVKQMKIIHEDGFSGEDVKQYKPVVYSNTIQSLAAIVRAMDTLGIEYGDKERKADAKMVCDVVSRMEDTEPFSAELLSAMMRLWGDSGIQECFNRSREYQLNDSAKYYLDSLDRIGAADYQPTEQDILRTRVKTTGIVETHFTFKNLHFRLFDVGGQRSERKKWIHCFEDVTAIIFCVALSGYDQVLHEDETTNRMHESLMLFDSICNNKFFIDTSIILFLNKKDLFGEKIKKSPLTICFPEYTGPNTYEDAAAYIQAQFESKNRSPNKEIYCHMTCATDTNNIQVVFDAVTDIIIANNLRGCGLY
Target sequence in this assay (P62873 2-340 partner limits assumed): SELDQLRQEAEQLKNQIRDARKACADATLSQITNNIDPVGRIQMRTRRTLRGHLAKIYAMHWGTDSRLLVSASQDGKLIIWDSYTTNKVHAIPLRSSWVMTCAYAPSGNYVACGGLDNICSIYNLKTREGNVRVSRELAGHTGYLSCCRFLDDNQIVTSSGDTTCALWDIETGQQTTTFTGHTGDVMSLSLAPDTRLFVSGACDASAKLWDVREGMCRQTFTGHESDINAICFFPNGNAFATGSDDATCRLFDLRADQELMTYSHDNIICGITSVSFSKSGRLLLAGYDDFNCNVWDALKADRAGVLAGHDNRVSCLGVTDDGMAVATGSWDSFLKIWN
Target sequence in this assay (P59768 2-68 partner limits assumed): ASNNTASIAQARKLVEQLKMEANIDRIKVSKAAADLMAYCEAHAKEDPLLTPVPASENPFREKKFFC
Membranes are derived from bulk cell cultures of HEK293 cell lines transiently transfected with hGPR38R and Go G-protein. P2 membranes fractions are prepared, aliquoted and stored at −80° C.
For each compound being assayed, the following is added into a white Greiner 384 well plate:—
(a) 1 μl of test compound diluted to required concentration in DMSO. (b) 20 μl bead/membrane/Saponin/GDP mix prepared as follows;—suspension of LEADseeker wheat germ agglutinin (WGA) scintillation proximity assay (SPA) beads at 25 mg/ml in assay buffer (20 mM N-2-Hydroxyethylpiperazine-N′-2-ethanesulfonic acid (HEPES)+100 mM NaCl+10 mM MgCl2, pH adjusted to 7.4 with KOH) containing saponin at 150 ug/ml. Mixing of bead suspension with membranes at 500 ug/ml (prepared in accordance with the methodology described above) and diluting in assay buffer to give a final volume of 20 μl which contains 5 μg protein and 0.25 mg bead per well.
Mixture is pre-mixed for 30 minutes on a roller and just prior to addition to the plate, 3 μM final assay concentration of guanosine 5′ diphosphate (GDP) (diluted in assay buffer) is added.
(c) 25 μl guanosine 5′ [γ35-S]thiotriphosphate, triethylamine salt (Amersham; radioactivity concentration=37 kBq/μl or 1 mCi/ml; Specific Activity 1160 Ci/mmol) diluted to 0.6 nM in assay buffer to give 0.33 nM final assay concentration.
The plate is then spun for 2 minutes at 1500 rpm and then incubated at room temperature for 4 hours. The plate is then read on a Viewlux Plux (Perkin Elmer). Data is analysed using a 4-parameter logistic equation.

The mark [3] stands for this setting: read-out: pEC50 in the FLIPR assay (converted).
Setting [4] is: [35S]GTPγS SPA, HEK293 membranes with hGPR38R and Go G-protein, read-out: pEC50 in the GTPγS assay (converted).

The structures appear in SMILES notation. Counter-ions that a name gives are not always drawn.

Turning to `C[C@H]1CN(Cc2ccc(-c3cccnc3C(=O)N3CCC(Nc4cccc(F)c4)CC3)cc2)CCN1` [Example 14, N-(3-fluorophenyl)-1-{[3-(4-{[(3S)-3-methyl-1-piperazinyl]methyl}phenyl)-2-pyridinyl]carbonyl}-4-piperidinamine], the results for the EC50 in assay [1] (pEC50 in the FLIPR assay) and in assay [2] were less than 316 nM and less than 3160 nM, respectively.

With `Cc1nc(CN(C)C(=O)CCc2ccc(F)cc2)c(-c2ccc(CN3C[C@@H](C)N[C@@H](C)C3)cc2)s1` [Example 6, N-{[5-(4-{[(3R,5S)-3,5-Dimethyl-1-piperazinyl]methyl}phenyl)-2-methyl-1,3-thiazol-4-yl]methyl}-3-(4-fluorophenyl)-N-methylpropanamide dihydrochloride], the EC50 was less than 316 nM in assay [1] (setting [3]) and less than 3160 nM in assay [2] (setting [4]).

On to `COc1cc(NC2CCN(C(=O)c3ncccc3-c3ccc(CN4C[C@@H](C)N[C@@H](C)C4)c(F)c3)CC2)ccc1F` [Example 28, 1-{[3-(4-{[(3R,5S)-3,5-dimethyl-1-piperazinyl]methyl}-3-fluorophenyl)-2-pyridinyl]carbonyl}-N-[4-fluoro-3-(methyloxy)phenyl]-4-piperidinamine], for which the EC50 was less than 316 nM in assay [1] (setting [3]) and less than 3160 nM in assay [2] (setting [4]).
